Source: patent US20260132129A1 (Genesis Therapeutics, Inc., priority 2022, published 2026)

Target: T1, PI3Kα H1047R (T47D cells) (Homo sapiens, UniProt P42336, H1047R)
T1 construct: endogenous in cells; host or cells: T47D cells
Experiment: PI3Kα cellular assay: pAKT HTRF in T47D cells after EGF stimulation
Type: cell-based
Conditions: for IC50: T47D cells (PI3Kα H1047R), pAKT S473 HTRF
Procedure, shortened: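 pAKT read by HTRF in lysates of EGF-stimulated (20 ng/mL, 10 min) T47D H1047R cells. Before stimulation, serum-starved cells (16 h) received compound for 1 h at 37 °C, dosed from 10,000 nM down to 0.5 nM in 3-fold steps.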

[1] = 1 hr compound, 20 ng/ml EGF 10 min
[2] = selectivity T47D (H1047R) over SKBR3 (WT), pAKT HTRF
[3] = selectivity of T47D (H1047R) over SKBR3 (WT) pAKT IC50

T1 sequence (P42336 whole entry H1047R): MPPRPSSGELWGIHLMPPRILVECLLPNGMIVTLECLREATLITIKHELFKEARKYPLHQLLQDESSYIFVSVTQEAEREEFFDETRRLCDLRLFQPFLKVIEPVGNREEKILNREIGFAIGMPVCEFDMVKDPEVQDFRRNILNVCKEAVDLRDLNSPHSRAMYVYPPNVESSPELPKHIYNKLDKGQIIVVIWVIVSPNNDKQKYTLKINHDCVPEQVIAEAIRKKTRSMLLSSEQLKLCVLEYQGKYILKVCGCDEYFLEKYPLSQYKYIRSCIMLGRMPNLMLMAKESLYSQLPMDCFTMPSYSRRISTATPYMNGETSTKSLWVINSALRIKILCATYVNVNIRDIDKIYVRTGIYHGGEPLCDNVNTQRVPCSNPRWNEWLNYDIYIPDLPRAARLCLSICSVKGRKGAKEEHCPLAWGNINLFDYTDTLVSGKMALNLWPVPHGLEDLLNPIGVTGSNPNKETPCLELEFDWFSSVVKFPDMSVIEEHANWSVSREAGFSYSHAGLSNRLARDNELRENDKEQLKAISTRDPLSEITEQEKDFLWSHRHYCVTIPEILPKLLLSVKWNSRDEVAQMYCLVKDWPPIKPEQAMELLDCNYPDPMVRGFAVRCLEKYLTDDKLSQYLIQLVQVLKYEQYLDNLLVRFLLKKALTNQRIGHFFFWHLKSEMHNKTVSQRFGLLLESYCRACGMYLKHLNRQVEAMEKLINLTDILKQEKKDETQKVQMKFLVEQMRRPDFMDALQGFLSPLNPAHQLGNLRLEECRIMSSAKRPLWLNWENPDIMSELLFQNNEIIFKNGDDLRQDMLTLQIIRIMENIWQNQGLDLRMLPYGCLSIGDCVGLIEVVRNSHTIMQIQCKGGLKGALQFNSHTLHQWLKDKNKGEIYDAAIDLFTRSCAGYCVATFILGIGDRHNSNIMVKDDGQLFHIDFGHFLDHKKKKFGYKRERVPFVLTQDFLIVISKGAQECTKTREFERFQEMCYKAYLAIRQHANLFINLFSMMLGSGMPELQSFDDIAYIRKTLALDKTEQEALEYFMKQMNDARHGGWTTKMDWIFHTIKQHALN
T1 sequence (P27986 whole entry partner): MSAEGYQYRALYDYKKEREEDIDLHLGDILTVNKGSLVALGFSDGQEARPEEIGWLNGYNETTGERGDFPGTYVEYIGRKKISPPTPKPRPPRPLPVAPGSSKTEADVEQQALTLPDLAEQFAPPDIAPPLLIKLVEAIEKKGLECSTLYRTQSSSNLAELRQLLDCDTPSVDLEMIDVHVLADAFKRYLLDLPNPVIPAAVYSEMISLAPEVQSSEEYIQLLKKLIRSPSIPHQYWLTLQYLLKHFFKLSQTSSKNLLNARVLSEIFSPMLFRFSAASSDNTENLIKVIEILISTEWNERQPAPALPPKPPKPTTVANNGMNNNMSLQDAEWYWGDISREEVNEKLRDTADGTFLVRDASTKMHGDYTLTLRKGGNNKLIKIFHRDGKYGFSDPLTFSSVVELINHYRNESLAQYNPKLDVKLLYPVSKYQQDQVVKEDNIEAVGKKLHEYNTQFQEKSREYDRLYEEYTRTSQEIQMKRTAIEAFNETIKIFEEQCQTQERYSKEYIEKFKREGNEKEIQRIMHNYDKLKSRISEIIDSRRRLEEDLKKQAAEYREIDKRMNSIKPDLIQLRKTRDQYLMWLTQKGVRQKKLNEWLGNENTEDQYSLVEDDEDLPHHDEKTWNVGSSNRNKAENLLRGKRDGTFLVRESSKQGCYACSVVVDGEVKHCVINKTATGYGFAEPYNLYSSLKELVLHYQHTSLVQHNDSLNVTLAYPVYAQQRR

Cc1cc(C(C)Nc2ccccc2C(=O)O)c2nc(N3CC(Cl)C3)cc(=O)n2c1 (stereo not shown) [Compound 363]
IC50 [1]: 100 to 500 nM | T47D pAKT S473 HTRF IC50 (H1047R): T47D (H1047R) selectivity over SKBR3 (WT) [2]: A (A denotes >20-fold)

Cc1cc([C@@H](C)Nc2ccccc2C(=O)O)c2nc(OC3CCOCC3)c(C)c(=O)n2c1 (single isomer, unassigned) [Compound 1370]
IC50 (EGF stimulation): > 2000 nM | T47D pAKT S473 HTRF IC50 (H1047R): T47D (H1047R) selectivity over SKBR3 (WT) [2]: C (C denotes ≤5-fold)

Cc1cc(C(C)Nc2ccccc2C(=O)O)c2nc(-c3cc[nH]c(=O)c3)cc(=O)n2c1 (stereo not shown) [Compound 380]
IC50 [1]: > 2000 nM | T47D pAKT S473 HTRF IC50 (H1047R): T47D (H1047R) selectivity over SKBR3 (WT) [2]: C (C denotes ≤5-fold)

Cc1cc([C@@H](C)NCc2cccnn2)c2nc(N3Cc4ccccc4C3)cc(=O)n2c1 [Compound 876]
IC50 (EGF stimulation): > 2000 nM | T47D pAKT S473 HTRF IC50 (H1047R): T47D (H1047R) selectivity over SKBR3 (WT) [3]: C (C denotes ≤5-fold)

Cc1cc([C@@H](C)Nc2cccc3[nH]nnc23)c2nc(N3CCOCC3)cc(=O)n2c1 [Compound 744]
T47D pAKT S473 HTRF IC50 (H1047R): T47D (H1047R) selectivity over SKBR3 (WT) [3]: B (B denotes 20-fold≥value>5-fold)

Cc1cc([C@@H](C)Nc2ccccc2C(=O)O)c2nc(-c3cnc4c(c3)c(C)c(C)n4C)c(C)c(=O)n2c1 (single isomer, unassigned) [Compound 804]
IC50 (EGF stimulation): < 100 nM | T47D pAKT S473 HTRF IC50 (H1047R): T47D (H1047R) selectivity over SKBR3 (WT) [3]: A (A denotes >20-fold)

Cc1cc(C(C)Nc2ccccc2C(=O)O)c2nc(-c3cnc(C4CCN(C(=O)C5CC5)CC4)nc3)c(C)c(=O)n2c1 (stereo not shown) [Compound 1336]
T47D pAKT S473 HTRF IC50 (H1047R): T47D (H1047R) selectivity over SKBR3 (WT) [2]: C (C denotes ≤5-fold)

Cc1cc([C@H](C)Nc2ccccc2)c2nc(-c3cc(C)c4oc(=O)[nH]c4c3)cc(=O)n2c1 [Compound 252]
IC50 [1]: > 2000 nM | T47D pAKT S473 HTRF IC50 (H1047R): T47D (H1047R) selectivity over SKBR3 (WT) [2]: C (C denotes ≤5-fold)

Cc1cc(C(C)Nc2cc(F)ccc2C(=O)O)c2nc(N3CCOCC3)cc(=O)n2c1 (stereo not shown) [Compound 289]
IC50 [1]: 100 to 500 nM | T47D pAKT S473 HTRF IC50 (H1047R): T47D (H1047R) selectivity over SKBR3 (WT) [2]: C (C denotes ≤5-fold)

Cc1cc([C@@H](C)Nc2ccccc2C(=O)O)c2nc([C@@H]3CCCOC3)c(C)c(=O)n2c1 [Compound 1280]
IC50 (EGF stimulation): < 100 nM | T47D pAKT S473 HTRF IC50 (H1047R): T47D (H1047R) selectivity over SKBR3 (WT) [2]: A (A denotes >20-fold)

Cc1cc([C@H](C)Nc2ccccc2C(=O)O)c2nc(-c3ccc4c(c3)CC(F)(F)C4)cc(=O)n2c1 [Compound 854]
IC50 (EGF stimulation): > 2000 nM
